Experimental data published in PubChem BioAssay (NCI).
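At the GI50, growth is halved. TGI marks complete inhibition of growth.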

How the values were obtained:
Assay in all cases: growth of human tumour cells (NCI), 384-well format
COLO 205 colon = test system: COLO 205 colon
UACC-257 melanoma = test system: UACC-257 melanoma
RPMI-8226 leukemia = test system: RPMI-8226 leukemia
NCI-H23 lung = test system: NCI-H23 lung
PC-3 prostate = test system: PC-3 prostate
DU-145 prostate = test system: DU-145 prostate
NCI-H522 lung = test system: NCI-H522 lung
SF-295 CNS = test system: SF-295 CNS
HS 578T breast = test system: HS 578T breast
SNB-19 CNS = test system: SNB-19 CNS
OVCAR-8 ovarian = test system: OVCAR-8 ovarian
SR leukemia = test system: SR leukemia
NCI-H226 lung = test system: NCI-H226 lung
SF-268 CNS = test system: SF-268 CNS
MCF7 breast = test system: MCF7 breast
M14 melanoma = test system: M14 melanoma
SNB-75 CNS = test system: SNB-75 CNS
MDA-MB-468 breast = test system: MDA-MB-468 breast
CAKI-1 renal = test system: CAKI-1 renal
OVCAR-5 ovarian = test system: OVCAR-5 ovarian
A498 renal = test system: A498 renal
MDA-MB-435 melanoma = test system: MDA-MB-435 melanoma
HCT-15 colon = test system: HCT-15 colon
HCC-2998 colon = test system: HCC-2998 colon
MOLT-4 leukemia = test system: MOLT-4 leukemia
MALME-3M melanoma = test system: MALME-3M melanoma
786-0 renal = test system: 786-0 renal
U251 glioblastoma = test system: U251 glioblastoma
OVCAR-3 ovarian = test system: OVCAR-3 ovarian
SN12C renal = test system: SN12C renal
EKVX NSCLC = test system: EKVX NSCLC
SK-OV-3 ovarian = test system: SK-OV-3 ovarian
KM12 colon = test system: KM12 colon
SK-MEL-5 melanoma = test system: SK-MEL-5 melanoma
K-562 leukemia = test system: K-562 leukemia
NCI-H460 NSCLC = test system: NCI-H460 NSCLC
HOP-62 NSCLC = test system: HOP-62 NSCLC
HT29 colon = test system: HT29 colon
HCT-116 colon = test system: HCT-116 colon
ACHN renal = test system: ACHN renal
A549 NSCLC = test system: A549 NSCLC
OVCAR-4 ovarian = test system: OVCAR-4 ovarian
HL-60(TB) leukemia = test system: HL-60(TB) leukemia
HOP-92 NSCLC = test system: HOP-92 NSCLC
LOX IMVI melanoma = test system: LOX IMVI melanoma
NCI/ADR-RES ovarian = test system: NCI/ADR-RES ovarian
IGROV1 ovarian = test system: IGROV1 ovarian

With `CC(C)C[C@H](NC(=O)[C@H](Cc1ccccc1)NC(=O)c1cnccn1)B(O)O` the GI50 (COLO 205 colon) was less than 10 nM, the TGI (COLO 205 colon) was 54 nM and the GI50 (UACC-257 melanoma) was less than 10 nM. The TGI (UACC-257 melanoma) was less than 10 nM, the GI50 (RPMI-8226 leukemia) was less than 10 nM and the TGI (RPMI-8226 leukemia) was less than 10 nM. The GI50 (NCI-H23 lung) was less than 10 nM, the TGI (NCI-H23 lung) was less than 10 nM and the GI50 (PC-3 prostate) was less than 10 nM. The TGI (PC-3 prostate) was less than 13.7 nM, the GI50 (DU-145 prostate) was less than 10 nM and the TGI (DU-145 prostate) was less than 13.8 nM. It also gave a GI50 (NCI-H522 lung) of less than 10 nM, a TGI (NCI-H522 lung) of less than 10 nM and a GI50 (SF-295 CNS) of less than 10 nM. The TGI (SF-295 CNS) was less than 10 nM, the GI50 (HS 578T breast) was less than 10 nM and the TGI (HS 578T breast) was less than 10 nM. For the same molecule, the GI50 (SNB-19 CNS) was less than 10 nM, the TGI (SNB-19 CNS) was less than 15.8 nM and the GI50 (OVCAR-8 ovarian) was less than 11.1 nM. For the same molecule, the TGI (OVCAR-8 ovarian) was less than 15.8 nM, the GI50 (SR leukemia) was less than 10 nM and the TGI (SR leukemia) was less than 10 nM. For the same molecule, the GI50 (NCI-H226 lung) was less than 10 nM, the TGI (NCI-H226 lung) was less than 10 nM and the GI50 (SF-268 CNS) was less than 10 nM. It also gave a TGI (SF-268 CNS) of less than 10 nM, a GI50 (MCF7 breast) of less than 10 nM and a TGI (MCF7 breast) of 13.9 nM. It also gave a GI50 (M14 melanoma) of less than 10 nM, a TGI (M14 melanoma) of less than 10 nM and a GI50 (SNB-75 CNS) of less than 10 nM. For the same molecule, the TGI (SNB-75 CNS) was less than 10 nM, the GI50 (MDA-MB-468 breast) was less than 10 nM and the TGI (MDA-MB-468 breast) was less than 10 nM. It also gave a GI50 (CAKI-1 renal) of less than 10 nM, a TGI (CAKI-1 renal) of less than 12 nM and a GI50 (OVCAR-5 ovarian) of less than 10 nM. The TGI (OVCAR-5 ovarian) was less than 16.3 nM, the GI50 (A498 renal) was less than 10 nM and the TGI (A498 renal) was less than 12.4 nM. For the same molecule, the GI50 (MDA-MB-435 melanoma) was less than 10 nM, the TGI (MDA-MB-435 melanoma) was less than 10 nM and the GI50 (HCT-15 colon) was less than 10 nM. For the same molecule, the TGI (HCT-15 colon) was less than 13.6 nM, the GI50 (HCC-2998 colon) was less than 11.8 nM and the TGI (HCC-2998 colon) was less than 16.5 nM. For the same molecule, the GI50 (MOLT-4 leukemia) was less than 10 nM, the TGI (MOLT-4 leukemia) was less than 10 nM and the GI50 (MALME-3M melanoma) was less than 10 nM. The TGI (MALME-3M melanoma) was less than 10 nM, the GI50 ([…]-0 renal) was less than 10 nM and the TGI (786-0 renal) was less than 11.3 nM. It also gave a GI50 (U251 glioblastoma) of less than 11.1 nM, a TGI (U251 glioblastoma) of 18.9 nM and a GI50 (OVCAR-3 ovarian) of less than 10 nM. The TGI (OVCAR-3 ovarian) was less than 10 nM, the GI50 (SN12C renal) was less than 10.8 nM and the TGI (SN12C renal) was 18.9 nM. For the same molecule, the GI50 (EKVX NSCLC) was less than 10 nM, the TGI (EKVX NSCLC) was less than 19 nM and the GI50 (SK-OV-3 ovarian) was less than 10 nM. It also gave a TGI (SK-OV-3 ovarian) of 30.3 nM, a GI50 (KM12 colon) of less than 10 nM and a TGI (KM12 colon) of less than 12.9 nM. For the same molecule, the GI50 (SK-MEL-5 melanoma) was less than 10 nM, the TGI (SK-MEL-5 melanoma) was less than 10 nM and the GI50 (K-562 leukemia) was less than 10 nM. It also gave a TGI (K-562 leukemia) of less than 10 nM, a GI50 (NCI-H460 NSCLC) of less than 13 nM and a TGI (NCI-H460 NSCLC) of 19.9 nM. It also gave a GI50 (HOP-62 NSCLC) of less than 10 nM, a TGI (HOP-62 NSCLC) of less than 12.5 nM and a GI50 (HT29 colon) of less than 10 nM. It also gave a TGI (HT29 colon) of less than 10 nM, a GI50 (HCT-116 colon) of less than 10 nM and a TGI (HCT-116 colon) of less than 10 nM. For the same molecule, the GI50 (ACHN renal) was less than 10 nM, the TGI (ACHN renal) was less than 10 nM and the GI50 (A549 NSCLC) was less than 10 nM. The TGI (A549 NSCLC) was 62 nM, the GI50 (OVCAR-4 ovarian) was less than 10 nM and the TGI (OVCAR-4 ovarian) was less than 10 nM. The GI50 (HL-60(TB) leukemia) was less than 10 nM, the TGI (HL-60(TB) leukemia) was less than 10 nM and the GI50 (HOP-92 NSCLC) was less than 10 nM. The TGI (HOP-92 NSCLC) was less than 10 nM, the GI50 (LOX IMVI melanoma) was less than 10 nM and the TGI (LOX IMVI melanoma) was 15.9 nM. It also gave a GI50 (NCI/ADR-RES ovarian) of 32.1 nM, a TGI (NCI/ADR-RES ovarian) of 92.6 nM and a GI50 (IGROV1 ovarian) of less than 11 nM. It also gave a TGI (IGROV1 ovarian) of less than 16 nM.
